From paper PMC5589937 (Scientific Reports, 2017)
Residue numbers refer to the chain shown, from its start. Read-outs that look alike come from different tables or passages of the source. One block for each molecule: values may come before it.

How the values were obtained:
severe sepsis = system: severe sepsis; parameters: method as in PMID 16096451; settings: trials terminated; experiment group; cited from earlier work
hGIIE F97L = biological target: T1, hGIIE F97L (Homo sapiens, UniProt Q9NZK7, F116L); test: Inhibition of hGIIE mutant F97L, sPLA2 assay kit; format: biochemical; settings: F97L enzyme 10.48 µM; mean ± s.d., n=2; read-out: IC50 against hGIIE F97L
T1 construct: The gene encoding for hGIIE protein without signal peptide was amplified by PCR; made in house; host or cells: Pichia pastoris X33 (vector pGAPZαA)
T1 sequence (Q9NZK7 20-142 F116L): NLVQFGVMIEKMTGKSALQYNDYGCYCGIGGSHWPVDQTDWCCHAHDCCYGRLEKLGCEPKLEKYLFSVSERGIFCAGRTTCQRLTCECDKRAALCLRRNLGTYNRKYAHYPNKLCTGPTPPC
Protocol: (§1) Enzymatic Kinetics of hGIIE assay was carried out using sPLA2 Assay kit (Cayman, Ann Arbor, MI, USA). Substrate of this assay is 1, 2-Diheptanoyl Thio-phosphatidylcholine (DTPC). After hydrolysis of the thio ester bond in the sn-2 position by phospholipase A2, free thiols are detected using 5, 5-dithio-bis-nitrobenzoic acid (DTNB). Activity assay was carried out on a 96-well plate at 25 °C. 10 µL DTNB, 10 µL protein sample and 5 µL buffer (25 mM Tris-HCl, pH 7.5, 10 mM CaCl2, 100 mM KCl, 0.3 mM Triton X-100) were pooled in the well, then the reaction was initiated by adding 200 µL substrate solution to the well simultaneously. Absorbance at 414 nm was measured every 1 min for 15 min. […] Protein concentration was adjusted to ensure the absorbance increase of 0.01 to 0.1 per minute. Curve was fitted to Michaelis-Menten equation and Lineweaver-Burk plot for the estimation of Km and Vmax using GraphPad Prism 5, Kcat was calculated by Vmax/enzyme concentration.
(§2) Inhibition of wild type (WT) and mutated hGIIE was analyzed using sPLA2 assay kit as mentioned above. In the assay system, 5 µL assay buffer was replaced by 5 µL of the inhibitor. Different concentrations of compound 8, 14, 24, Me-Indoxam, and LY311727 were prepared. The final concentration of enzyme used per well are as following: WT: 6.42 µM; F5L: 6.4 µM; F97L: 10.48 µM; F5L_F97L: 6.73 µM; G6H: 10.91 µM; G6N: 7.56 µM; N21G: 32.86 µM; N21M: 22.14 µM; N21W: 30 µM. Control reactions without enzyme or inhibitor were carried out. Percent inhibition of every well were calculated. Curve was fitted to the log (inhibitor)-response variable slope and IC50 was calculated using GraphPad Prism 5 (GraphPad).

hGIIE N21G = biological target: T2, hGIIE N21G (Homo sapiens, UniProt Q9NZK7, N40G); test: Inhibition of hGIIE mutant N21G, sPLA2 assay kit; format: biochemical; settings: N21G enzyme 32.86 µM; mean ± s.d., n=2; read-out: IC50 against hGIIE N21G
T2 construct: The gene encoding for hGIIE protein without signal peptide was amplified by PCR; made in house; host or cells: Pichia pastoris X33 (vector pGAPZαA)
T2 sequence (Q9NZK7 20-142 N40G): T1 sequence (Q9NZK7 20-142 F116L) with N21G, L97F
Protocol: as §1, §2

hGIIE N21W = biological target: T3, hGIIE N21W (Homo sapiens, UniProt Q9NZK7, N40W); test: Inhibition of hGIIE mutant N21W, sPLA2 assay kit; format: biochemical; settings: N21W enzyme 30 µM; mean ± s.d., n=2; read-out: IC50 against hGIIE N21W
T3 construct: The gene encoding for hGIIE protein without signal peptide was amplified by PCR; made in house; host or cells: Pichia pastoris X33 (vector pGAPZαA)
T3 sequence (Q9NZK7 20-142 N40W): T1 sequence (Q9NZK7 20-142 F116L) with N21W, L97F
Protocol: as §1, §2

hGIIE F5L_F97L = biological target: T4, hGIIE F5L_F97L (Homo sapiens, UniProt Q9NZK7, F116L/F24L); test: Inhibition of hGIIE double mutant F5L_F97L, sPLA2 assay kit; format: biochemical; settings: F5L_F97L enzyme 6.73 µM; mean ± s.d., n=2; read-out: IC50 against hGIIE F5L_F97L
T4 construct: The gene encoding for hGIIE protein without signal peptide was amplified by PCR; made in house; host or cells: Pichia pastoris X33 (vector pGAPZαA)
T4 sequence (Q9NZK7 20-142 F24L/F116L): T1 sequence (Q9NZK7 20-142 F116L) with F5L
Protocol: as §1, §2

hGIIE G6N = biological target: T5, hGIIE G6N (Homo sapiens, UniProt Q9NZK7, G25N); test: Inhibition of hGIIE mutant G6N, sPLA2 assay kit; format: biochemical; settings: G6N enzyme 7.56 µM; mean ± s.d., n=2; read-out: IC50 against hGIIE G6N
T5 construct: The gene encoding for hGIIE protein without signal peptide was amplified by PCR; made in house; host or cells: Pichia pastoris X33 (vector pGAPZαA)
T5 sequence (Q9NZK7 20-142 G25N): T1 sequence (Q9NZK7 20-142 F116L) with G6N, L97F
Protocol: as §1, §2

hGV = settings: cited from earlier work
hGX = settings: cited from earlier work
hGIIE G6H = biological target: T6, hGIIE G6H (Homo sapiens, UniProt Q9NZK7, G25H); test: Inhibition of hGIIE mutant G6H, sPLA2 assay kit; format: biochemical; settings: G6H enzyme 10.91 µM; mean ± s.d., n=2; read-out: IC50 against hGIIE G6H
T6 construct: The gene encoding for hGIIE protein without signal peptide was amplified by PCR; made in house; host or cells: Pichia pastoris X33 (vector pGAPZαA)
T6 sequence (Q9NZK7 20-142 G25H): T1 sequence (Q9NZK7 20-142 F116L) with G6H, L97F
Protocol: as §1, §2

hGIIE = biological target: T7, hGIIE (Homo sapiens, UniProt Q9NZK7); settings: cited from earlier work
T7 construct: The gene encoding for hGIIE protein without signal peptide was amplified by PCR; made in house; host or cells: Pichia pastoris X33 (vector pGAPZαA)
T7 sequence (Q9NZK7 20-142): T1 sequence (Q9NZK7 20-142 F116L) with L97F

hGIIE F5L = biological target: T8, hGIIE F5L (Homo sapiens, UniProt Q9NZK7, F24L); test: Inhibition of hGIIE mutant F5L, sPLA2 assay kit; format: biochemical; settings: F5L enzyme 6.4 µM; mean ± s.d., n=2; read-out: IC50 against hGIIE F5L
T8 construct: The gene encoding for hGIIE protein without signal peptide was amplified by PCR; made in house; host or cells: Pichia pastoris X33 (vector pGAPZαA)
T8 sequence (Q9NZK7 20-142 F24L): T1 sequence (Q9NZK7 20-142 F116L) with F5L, L97F
Protocol: as §1, §2

hGIIE N21M = biological target: T9, hGIIE N21M (Homo sapiens, UniProt Q9NZK7, N40M); test: Inhibition of hGIIE mutant N21M, sPLA2 assay kit; format: biochemical; settings: N21M enzyme 22.14 µM; mean ± s.d., n=2; read-out: IC50 against hGIIE N21M
T9 construct: The gene encoding for hGIIE protein without signal peptide was amplified by PCR; made in house; host or cells: Pichia pastoris X33 (vector pGAPZαA)
T9 sequence (Q9NZK7 20-142 N40M): T1 sequence (Q9NZK7 20-142 F116L) with N21M, L97F
Protocol: as §1, §2

hGIID = system: hGIID; parameters: method as in PMID 15028265; settings: cited from earlier work
WT hGIIE = biological target: T10, WT hGIIE (Homo sapiens, UniProt Q9NZK7); test: Inhibition of wild type hGIIE, sPLA2 assay kit (DTPC substrate, DTNB detection); format: biochemical; settings: WT enzyme 6.42 µM per well; mean ± s.d., n=2; read-out: IC50 against WT hGIIE
T10 construct: The gene encoding for hGIIE protein without signal peptide was amplified by PCR; made in house; host or cells: Pichia pastoris X33 (vector pGAPZαA)
T10 sequence (Q9NZK7 20-142): T1 sequence (Q9NZK7 20-142 F116L) with L97F
Protocol: as §1, §2

cardiovascular diseases = settings: treatment of cardiovascular diseases; cited from earlier work
rheumatoid arthritis = system: rheumatoid arthritis; parameters: method as in PMID 15742431; settings: clinically tested; cited from earlier work
hGIIA = settings: measure not given; read-out: potency to hGIIA; cited from earlier work
hGIB = system: hGIB; parameters: method as in PMID 16686528; settings: cited from earlier work
[1] = substrate: CCCCCC(=O)OC[C@H](COP(=O)([O-])OCC[N+](C)(C)C)OC(=O)CCCCC; test: purified protein, by the assay type; settings: other: ITC, 25 °C, 2 µM hGIIE, pH 7.5, 10 mM CaCl2
Protocol: Reactions were performed with Microcal ITC200 (GE Healthcare) at 25 °C, and data were collected and analyzed by ORIGIN. A multiple injection kinetic assay was conducted using a stirring speed of 750 rpm. 2 µM protein hGIIE (200 µL) in the reaction cell was titrated with 13 × 3 µL injection of phospholipid (10–50 mM) using a 120 s delay between successive injections. The apparent enthalpy (ΔH) for the hydrolysis of phospholipid by hGIIE was determined in a separate experiment in which 1 × 6 µL injections of phospholipid into 2 µM protein hGIIE (200 µL) was made using spacing 1800 s. Buffer solution was carefully matched in both the ligand and enzyme solutions. Mother liquor of phospholipids including DHPG (in water), DHPC (in DMSO), DHPE (in DMSO) (Avanti) with 200 mM concentration were prepared. Working buffer (20 mM DHPG, 50 mM DHPC, 10 mM DHPE) is prepared by diluting the mother liquor with buffer 100 mM Tris, 150 mM KCl, 10 mM CaCl2, pH 7.5.

Molecule: CCc1c(C(=O)C(N)=O)c2c(OCC(=O)[O-])cccc2n1Cc1ccccc1.[Na+] [LY315920: Na]
outcome of clinical trials in severe sepsis (severe sepsis): higher mortality rate

Molecule: Cc1c(C(=O)C(N)=O)c2c(OCC(=O)O)cccc2n1Cc1ccccc1C(F)(F)F [Compound 24]
IC50 (hGIIE F97L): 250 ± 20 nM
IC50 (hGIIE N21G): 2390 ± 400 nM
IC50 (hGIIE N21W): 1870 ± 180 nM
IC50 (hGIIE F5L_F97L): 140 ± 10 nM
IC50 (hGIIE G6N): 270 ± 30 nM
IC50 (hGV): < 330 nM
decreased effect against hGX than hGIIE (hGX): about 50 fold
IC50 (hGIIE G6H): 540 ± 30 nM
IC50 (hGIIE; read-out: IC50 hGIIE): < 25 nM
IC50 (hGIIE F5L): 110 ± 10 nM
IC50 (hGIIE N21M): 830 ± 220 nM
decreased effect against hGIID in comparison to hGIIE (hGIID): over 100 fold

Molecule: Cc1c(C(=O)C(N)=O)c2c(OCC(=O)O)cccc2n1Cc1cccc(Br)c1 [Compound 14]
IC50 (hGIIE F97L): 280 ± 70 nM
IC50 (hGIIE N21G): 1730 ± 50 nM
IC50 (hGIIE N21W): 1940 ± 220 nM
IC50 (hGIIE F5L_F97L): 300 ± 20 nM
IC50 (hGIIE G6N): 230 ± 30 nM
IC50 (hGV): < 330 nM
IC50 (hGIIE G6H): 880 ± 310 nM
IC50 (hGIIE; read-out: IC50 hGIIE): < 25 nM
IC50 (hGIIE F5L): 130 ± 40 nM
IC50 (hGIIE N21M): 840 ± 30 nM
IC50 (WT hGIIE): 220 ± 20 nM

Molecule: CCc1c(C(=O)C(N)=O)c2c(OCC(=O)OC)cccc2n1Cc1ccccc1 [Varespladib methyl]
adverse effects in phase three trials (cardiovascular diseases): increased events of cardiovascular mortality, heart attack, and stroke
efficacy in treatment of rheumatoid arthritis (rheumatoid arthritis): ineffective

IC50 (hGIIE F97L): 1120 ± 20 nM
IC50 (hGIIE N21G): 5130 ± 1070 nM
IC50 (hGIIE N21W): 18000 ± 1370 nM
IC50 (hGIIE F5L_F97L): 1000 ± 220 nM
IC50 (hGIIE G6N): 3070 ± 420 nM
IC50 (hGIIE G6H): 14300 ± 390 nM
IC50 (hGIIE F5L): 1790 ± 140 nM
IC50 (hGIIE N21M): 5980 ± 400 nM
Molecule: CCc1c(CC(N)=O)c2cc(OCCCP(=O)(O)O)ccc2n1Cc1ccccc1 [LY311727]

Molecule: Cc1c(C(=O)C(N)=O)c2c(OCC(=O)O)cccc2n1Cc1cccc2ccccc12 [Compound 8]
IC50 (hGIIE F97L): 480 ± 30 nM
IC50 (hGIIE N21G): 630 ± 20 nM
IC50 (hGIIE N21W): 1270 ± 220 nM
IC50 (hGIIE F5L_F97L): 250 ± 40 nM
IC50 (hGIIE G6N): 630 ± 50 nM
IC50 (hGV): < 330 nM
IC50 (hGIIE G6H): 3760 ± 860 nM
IC50 (hGIIE; read-out: IC50 hGIIE): < 25 nM
IC50 (hGIIE F5L): 250 ± 60 nM
IC50 (hGIIE N21M): 1050 ± 20 nM
IC50 (WT hGIIE): 280 ± 30 nM

Molecule: Cc1c(C(=O)C(N)=O)c2c(OCC(=O)O)cccc2n1Cc1ccccc1-c1ccccc1 [Me-Indoxam]
IC50 (hGIIE F97L): 260 ± 20 nM
IC50 (hGIIE N21G): 1840 ± 30 nM
IC50 (hGIIE N21W): 1440 ± 130 nM
IC50 (hGIIA): 30 nM
IC50 (hGIIE F5L_F97L): 240 ± 30 nM
IC50 (hGIIE G6N): 140 ± 20 nM
IC50 (hGIIE G6H): 300 ± 20 nM
IC50 (hGIIE; measure not given, read-out: potency to hGIIE): 8 nM
IC50 (hGIIE F5L): 160 ± 10 nM
IC50 (hGIIE N21M): 880 ± 10 nM
IC50 (WT hGIIE): 210 ± 10 nM

Molecule: CCc1c(C(=O)C(N)=O)c2c(OCC(=O)O)cccc2n1Cc1ccccc1 [LY315920, Varespladib]
IC50 (hGIB): 750 nM
IC50 (hGV): 500 nM
IC50 (hGX): 75 nM

B1: hGIIE (Homo sapiens) (protein)
chain: T1 sequence (Q9NZK7 20-142 F116L) with L97F
Km [1]: 5.52 ± 1.00 mM
kcat [1]: 3.22 ± 0.30 s⁻¹
